Active and inactive are the calls of the source. The calls are words filed in the database; no cut-off is given here.
How the values were obtained:
HMC-1.2 = test: Induction of apoptosis in human HMC-1.2 cells by flow cytometry; type: functional, cell-based
[1] = Inhibition of IgE-dependent histamine release in normal human blood basophils; type: functional, tissue-based; details: Basophil
cells = type: functional, tissue-based; details: Homo sapiens, Mast cell
Description: Growth inhibition of human neoplastic mast cells incubated for 24 to 48 hrs

Row | IC50 (cells) | SMILES | Activity (HMC-1.2) | IC50 [1]
1 |  | CO[C@@H]1[C@H](N(C)C(=O)c2ccccc2)C[C@H]2O[C@]1(C)n1c3ccccc3c3c4c(c5c6ccccc6n2c5c31)C(=O)NC4 | Active | 
2 |  | CO[C@@H]1[C@H](N(C)C(=O)c2ccccc2)C[C@H]2O[C@]1(C)n1c3ccccc3c3c4c(c5c6ccccc6n2c5c31)C(=O)NC4O (stereo partly specified) | inactive | 0.01 µM
3 | 0.05 µM | CN(C(=O)c1ccccc1)[C@@H]1C[C@H]2O[C@@](C)([C@@H]1O)n1c3ccccc3c3c4c(c5c6ccccc6n2c5c31)C(=O)NC4 | Active | 0.01 µM
